According to patent EP2177604A1, “Methods for identifying potential CYP4 metabolites, inhibitors or prodrugs” (PomBio Tech GmbH, priority 2008, dated 2010):
Where two headings read alike, the source gives them in different places.

Target: T1, human CYP4Z1 (Homo sapiens, UniProt Q86W10)
T1 sequence (Q86W10 1-505): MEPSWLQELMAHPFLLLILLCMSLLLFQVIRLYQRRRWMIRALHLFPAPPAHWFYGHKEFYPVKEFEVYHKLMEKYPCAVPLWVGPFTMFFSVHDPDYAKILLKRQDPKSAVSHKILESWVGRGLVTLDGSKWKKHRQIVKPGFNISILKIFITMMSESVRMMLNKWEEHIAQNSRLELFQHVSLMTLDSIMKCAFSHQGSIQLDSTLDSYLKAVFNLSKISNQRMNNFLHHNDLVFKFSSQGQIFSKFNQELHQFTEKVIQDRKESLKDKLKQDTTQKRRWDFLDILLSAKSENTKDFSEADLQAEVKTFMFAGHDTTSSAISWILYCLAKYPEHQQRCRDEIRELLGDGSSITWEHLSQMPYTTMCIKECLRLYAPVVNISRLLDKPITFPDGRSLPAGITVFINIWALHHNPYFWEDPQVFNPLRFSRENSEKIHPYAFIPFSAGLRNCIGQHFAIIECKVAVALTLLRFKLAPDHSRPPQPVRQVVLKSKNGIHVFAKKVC
Experiment: whole-cell biotransformation (substrate conversion) assay with fission yeast strains expressing CYP4Z1
Conditions: for metabolite formation / metabolism by human CYP4Z1: fission yeast strains AZ1 and AZ3, 1 mM substrate, 24 h at 30°C, HPLC (steroids, vitamin D, ebastine) or GC-MS (fatty acids)
Description: Possible substrates of human CYP4Z1 were tested by incubating the fission yeast strains AZ1 and AZ3 as well as the control strains NCYC2036 and CAD 62 with 1 mM substrate. […] Approximately 2*10^8 cells/mL were used per assay. Cells were grown in EMM medium containing 100 g/L glucose as well as the required supplements (leucine for AZ1 and CAD 62). Incubation was carried out either in 96 well microtiter plates or in 250 mL Erlenmeyer flasks with a cellulose stopper at a shaking velocity of 150 rpm for 24 h at 30°C.
Samples containing steroids as possible substrates were extracted with ethylacetate, evaporated and analyzed via HPLC (Alliance, Waters, USA) using a RP-18 column (Licrosphere 100, 5µM, Merck, Darmstadt) or a RP-8 column (Licrosphere 100, 5µM, Merck, Darmstadt). The column temperature was kept constant at 40°C. The mobile phase used for each sample is outlined in Suppl. Table. 1. When available, positive control reactions were carried out using strains expressing a P450 that is known to metabolize the respective substrate.
Fatty acid conversions were analyzed via GC-MS as previously described. Fatty acid extraction from S.pombe cells was performed using the Bligh and Dyer method.. Extracted samples were then evaporated to dryness, dissolved in a mixture of 500 µl methanol/toluene/sulphuric acid (50:50:2 V/V) and incubated at 55 °C overnight. 400µl of a 0.5 M […], 2 M KCl solution were added to the samples which were then centrifuged at RT, transferred to a GC vial and derivatised with 25 µl N-Methyl-N-(trimethylsilyl)trifluoroacetamide (37 °C for 1 hour). Fatty acid analysis was performed on an Agilent 6890N gas chromatograph coupled to an Agilent 5973N mass selective detector and equipped with a non-polar J&W DB-5HT capillary column, as described before.

main hydroxylation position (MS fragmentation analysis)	other hydroxylated fatty acids detected besides the main product	Compound	metabolite formation / metabolism by human CYP4Z1	main hydroxylation position (MS fragmentation analysis) (CYP4Z1 whole-cell biotransformation, GC-MS, main product)	other hydroxylated fatty acids detected besides the main product (CYP4Z1 whole-cell biotransformation, GC-MS, minor products)
–	–	C=C1CC[C@H](O)C/C1=C/C=C1\CCC[C@]2(C)[C@@H]([C@H](C)CCCC(C)C)CC[C@@H]12 [vitamin D3]	not metabolized	–	–
–	–	CCCCCCCCCCCCCC(=O)O [myristic acid]	able to hydroxylate	mainly hydroxylated at position ω-2	ω-3-, ω-4-, ω-5-hydroxlated
predominantly ω-4-hydroxylated	ω-2-, ω-3-, ω-5-hydroxylated	CCCCCCCCCCCC(=O)O [lauric acid]	–	–	–
